Measured values reported in article PMC11786100, “Chronic GIPR agonism results in pancreatic islet GIPR functional desensitisation” (Molecular Metabolism, 2025).
Read-outs that look alike come from different tables or passages of the source.

Tests used:
[1] = Peptide stability in complete medium with dispersed islet cells (cAMP bioactivity assay); assay type: in vitro ADME, mouse
Procedure: AD-293 cells were added to a 12-well plate and maintained in 2 ml complete DMEM. 1 μg of specified plasmid DNA was added to each well alongside Lipofectamine 2000 (Thermo Fisher, UK). cAMP production was quantified 24 hours following transfection using homogenous time resolved fluorescence (HTRF), specifically the cAMP-Gs Dynamic 2 kit (Cisbio, France). Peptides and cells were diluted in DMEM + 1% P/S + 0.1% BSA. For peptide stability testing, cells, fresh peptide and peptide incubated with dispersed islet cells were diluted in RPMI-1640 (Thermo Fisher, UK) + 10% FBS + 1% P/S. 10 μl of peptide and 10 μl of cell suspension were added in duplicate to an opaque 96-well plate (Grenier Bio-One, Austria) and incubated at 37°C for 30 minutes. 10 μl of cAMP-d2 and anti-cAMP cryptate, both diluted in lysis buffer, were added in quick succession as per the manufacturer’s protocol. The plates were then incubated at room temperature for 45 minutes and read using the SpectraMax i3x (Molecular Devices, US).
Three-parameter curve fitting was applied.

dispersed islet cells = experiment: cADDis cAMP concentration-response in dispersed islets; assay type: cell-based, mouse; details: three-parameter fit, n=5, read-out: calculated EC50, cAMP in dispersed islets
Procedure: (§1) Primary cultures of mouse hypothalamic neurons and dispersed pancreatic islets were transduced with the Green Up cADDis biosensor (Montana Molecular, US). Pancreatic islets from CAMPER^Pdx−1-CreERT2 and CAMPER^Som-Cre mice were not transduced. Cells were pre-treated with peptides as specified, dissolved in culture media. Following 4 h or overnight incubation and a 1-hour washout period, cells were imaged using an epifluorescence microscope at baseline (t = 3 min), following peptide addition (t = 10 min, unless specified otherwise), and following 3-isobutyl-1-methylxanthine (IBMX) (500 μM) and forskolin (FSK) (50 μM) addition (t = 3 min) to maximally stimulate the sensor. In pre-treatment experiments, islet cell fluorescence was normalised to the IBMX/FSK response which was set as 100%. In non-pre-treatment experiments, islet and neuronal cell fluorescence was normalised to both the baseline and IBMX/FSK response. The area-under-the-curve (AUC) for each cell was quantified. Full details of isolation, transduction, plating, imaging and image analysis is provided in the supplementary methods.
Dispersed islets: A cell suspension of dispersed islets in RPMI-1640 + 10% FBS + 1% P/S (islet complete media) was seeded onto square 96 well µ-plates (Ibidi, UK), coated with 0.01% poly-D-lysine hydrobromide (Sigma-Aldrich, UK) and 25 µg/ml mouse laminin (Thermo Fisher, UK). For cADDis experiments, cells were transduced with the Green Up cADDis biosensor (15 μL of cADDis, 1.5 μL of sodium butyrate per well: Montana Molecular, US). Cells were incubated overnight (37°C, 95%:5% O2:CO2 ratio).
Cells were imaged in Krebs buffer with 6 mM glucose and 0.1% BSA (unless 10% FBS was specified) at 37°C using an automated epifluorescence microscope (modified Nikon Ti-2E with LED illumination). Multiple fields of view (FOV) were imaged in parallel (for islets, multiple wells of a 96 well plate were imaged in parallel), allowing hundreds to thousands of cells to be imaged every minute throughout the time course. For all acquisitions, the first three minutes were baseline recording pre-peptide addition and the last three minutes were a positive control following IBMX (500 μM) and forskolin (50 μM) addition to maximally stimulate the sensor.
cAMP quantification from the raw islet/neuronal images was performed using Fiji v1.54f (NIH). For each acquisition, a flat-field (BaSiC [3*]) correction was applied, and intensity thresholding enabled cell-containing regions to be identified as regions-of-interest (ROIs). The fluorescence intensity of each ROI was measured at each time point. In pre-treatment experiments, islet cell fluorescence was normalised to the maximal IBMX/FSK response which was set as 100%. For non-pre-treatment experiments, neuronal and islet cell fluorescence were normalised to both the baseline and maximal IBMX/FSK response. The AUC during peptide stimulation for each cell was quantified. Neurons with an AUC greater than 75 (representing a response 15 % of the maximum IBMX/FSK response) were deemed responder neurons.
We aimed to determine appropriate pre-treatment doses of GIPR agonists which would produce detectable cAMP responses, indicating target engagement, and were compatible with an extended incubation in complete medium, which could influence ligand availability via binding to serum proteins. We first performed concentration-response analysis in dispersed islets transduced with cADDis in the presence of 10% FBS (Figure S2A, B, D, E).
To determine a sensible re-challenge dose of GIPR agonists, a further concentration-response analysis was conducted in cADDis-transduced dispersed islets in imaging buffer (Krebs buffer + 6 mM glucose + 0.1% BSA, i.e. without FBS) (Figure S2C, F). […] Therefore, 1 μM of GIP108 and 100 nM of GIP were chosen as peri-maximal re-stimulation doses for the remaining islet cAMP assays.
GLP-1R agonist pre-treatment dose selection was performed concurrently with GIPR agonist dose selection.

[2] = system: lean and HFD-induced obese mice; experiment: In vivo GIPR desensitisation: IPGTT and insulin bleeds; parameters: species or system mouse
Procedure: (§2) In all in vivo studies, mice were randomised by body weight into groups. Mice received a 50 μL subcutaneous injection of saline (0.9% sodium chloride) or peptide at a specified dose, diluted in saline. Peptide dosing was in nmol per kg of total body weight. For the assessment of the chronic effects of GIP108, mice were injected daily for 15 days. Body composition was measured by EchoMRI on day −1 and day 15. An intraperitoneal glucose tolerance test (IPGTT) (2 g/kg) was conducted on day 14, following 6 h of fasting and 2 h after peptide injection. Non-fasting plasma leptin (ab199082, Abcam, UK), adiponectin (ab226900, Abcam, UK) and amino acids (ab65347, Abcam, UK) were measured on day 16. For the assessments of in vivo GIPR desensitisation, mice were injected at 17:00 with vehicle or GIP108 (30 nmol/kg) prior to an acute food intake study/IPGTT/insulin bleeds conducted the following day. Full details of the in vivo studies are provided in the supplementary methods.
Mice were fasted at 08:00. For all studies, 20% glucose was administered at 14:00, with the injection volume adjusted to the body weight of the mouse such that each mouse received glucose at 2 g/kg. To assess effects of GIP108 on day 14 of the chronic study, mice were dosed with saline or GIP108 at a specified dose at 12:00. […] Blood glucose measurements were taken via tail vein venesection at baseline, t=15, t=30, t=60, t=90 and t=120 mins. Glucose AUC is calculated using y=0. Glucose readings were measured in mmol/L using the same GlucoRx glucometer.
Mice were fasted at 08:00. At 14:00, mice received an intraperitoneal injection with 20% glucose, with the injection volume adjusted to the body weight of the mouse such that each mouse received glucose at 2 g/kg. […] Blood samples were taken via tail vein venesection at baseline and t=15 minutes following injection.
Leptin, adiponectin and amino acids were quantified following chronic GIP108 administration. Plasma amino acids were measured using the Abcam L-amino acid assay kit (ab65347, Abcam, UK). Plasma adiponectin was measured using the Abcam mouse adiponectin ELISA kit (ab226900, Abcam, UK). Plasma leptin was measured using the Abcam mouse leptin ELISA kit (ab199082, Abcam, UK). All assays were performed according to the manufacturer’s protocol and were read using the SpectraMax i3x Microplate Reader (Molecular Devices, US).

[3] = system: murine hypothalamic neurons; experiment: cADDis cAMP imaging in primary hypothalamic neurons; assay type: cell-based, mouse; details: 100 nM and 1 μM, 5-minute stimulation, n=4
Procedure: as §1
Primary cultures of hypothalamic neurons were prepared from 6-week-old male and female mice as described previously [2*]. A minor difference was that the neuronal pellet was resuspended in Neurobasal-A medium containing 0.25% Glutamax, 2% B27 and 25 ng/ml NGF (all Thermo Fisher, UK) (neuronal culture media).
Hypothalamic neurons: 100 μL cell suspension of neurons in neuronal culture media was seeded on 35 mm petri dish (MatTek Corporation), pre-coated with 0.01% poly-D-lysine hydrobromide. […]
cAMP quantification from the raw islet/neuronal images was performed using Fiji v1.54f (NIH). […] The fluorescence intensity of each ROI was measured at each time point. In pre-treatment experiments, islet cell fluorescence was normalised to the maximal IBMX/FSK response which was set as 100%. For non-pre-treatment experiments, neuronal and islet cell fluorescence were normalised to both the baseline and maximal IBMX/FSK response. The AUC during peptide stimulation for each cell was quantified. […]

HFD-induced obese mice = experiment: Acute fast-refeed food intake study; assay type: in vivo, mouse; details: 200 nmol/kg; vehicle and GIP108 (30 nmol/kg) pre-treated HFD-induced obese mice; n = 37–40
Procedure: as §2
Food intake was measured at t=30, t=60, t=120 and t=240 mins.

[4] = 1 μM in complete medium with dispersed islet cells, cAMP bioactivity in mouse GIPR AD-293 cells

Row | Compound | concentration remaining from 0.5 nM after 24 hours [1] | concentration remaining from 5 nM after 24 hours [1] | EC50 (dispersed islet cells; imaging buffer (Krebs buffer + 6 mM glucose + 0.1% BSA, without FBS)) | EC50 (dispersed islet cells; in the presence of 10% FBS, stepwise addition) | glucose tolerance during IPGTT ([2]; hGIP 50 nmol/kg with i.p. glucose, lean and HFD-induced obese mice given s.c. vehicle 21 h prior, n = 14–16) | glucose tolerance during IPGTT ([2]; hGIP 500 nmol/kg, lean and obese mice pre-treated with GIP108 (30 nmol/kg), n=6-8) | cAMP response of hypothalamic neurons [3] | stability at 4 hours [1, 4] | stability at 24 hours [1, 4] | food intake, acute fast-refeed study (HFD-induced obese mice)
1 | CCCCCCCCCCCCCCCC(=O)N[C@@H](CCC(=O)NCCCC[C@H](NC(=O)[C@H](C)NC(=O)[C@H](C)NC(=O)[C@H](CCC(N)=O)NC(=O)CNC(=O)[C@H](CCC(=O)O)NC(=O)[C@H](CC(C)C)NC(=O)[C@H](Cc1ccc(O)cc1)NC(=O)[C@H](CO)NC(=O)[C@H](CO)NC(=O)[C@@H](NC(=O)[C@H](CC(=O)O)NC(=O)[C@H](CO)NC(=O)[C@@H](NC(=O)[C@H](Cc1ccccc1)NC(=O)[C@@H](NC(=O)CNC(=O)[C@H](CCC(=O)O)NC(=O)[C@H](C)NC(=O)[C@@H](N)Cc1cnc[nH]1)[C@@H](C)O)[C@@H](C)O)C(C)C)C(=O)N[C@@H](CCC(=O)O)C(=O)N[C@@H](Cc1ccccc1)C(=O)N[C@H](C(=O)N[C@@H](C)C(=O)N[C@@H](Cc1c[nH]c2ccccc12)C(=O)N[C@@H](CC(C)C)C(=O)N[C@H](C(=O)N[C@@H](CCCNC(=N)N)C(=O)NCC(=O)N[C@@H](CCCNC(=N)N)C(=O)NCC(=O)O)C(C)C)[C@@H](C)CC)C(=O)O [liraglutide] | 0.12 nM | 0.97 nM |  |  |  |  |  |  |  | 
2 | human GIP(1–42) [hGIP] |  |  | 6.37 nM | 69.4 nM | significantly improved glucose tolerance | still able to improve glucose tolerance | failed to show detectable responses | remained stable at 4 hours | not 24 hours | modest reductions in food intake
